Test results from US20050009772A1, “Methods and compositions for the treatment of glaucoma and other retinal diseases” (The Regents of the University of California, priority 2003, published 2005).
“Also recorded” adds a separate entry of the source.

How the values were obtained:
retinal ganglion cells = test: 2DG administration in the animal model of glaucoma; assay type: in vivo; settings: animal model of glaucoma employed herein
Method: Lan et al., NeuroReport 14:2369-72 (2003). In the hands of the, present inventors, however, 2DG administration was ineffective in protecting retinal ganglion cells in the animal model of glaucoma employed herein. Thus, confirmation of efficacy in a relevant animal model is required before any actual conclusions can be drawn.
Rats were anesthetized with intramuscular injections of 0.8 ml/kg of the anesthetic cocktail described above. A previously published procedure was modified to produce chronic moderately elevated IOP unilaterally, while the untreated contralateral eye served as the comparative control.40 Animals were injected intracamerally with 10 μl of 35% India ink (Becton Dickinson, Cockeysville, Md.) in 0.01 M PBS after removing a similar volume of aqueous. At the end of the procedure, Tobrex ophthalmic ointment (tobramycin 0.3%; Alcon, Fort Worth, Tex.) was applied topically. Five days after intracameral injection of India ink, a dark band at the limbus was noted due to the aggregation of carbon particles in the trabecular meshwork.38 After anesthesia, approximately 200 laser burns were delivered ab externo to the pigmented trabecular band at laser settings of 200 μm diameter, 200 mW power and 0.2 seconds duration. Three weeks after the first laser treatment, another trabecular laser photocoagulation was performed without further injection of ink.

HSP72 [1] = test: Western blot for HSP72 in enriched RGC fraction after systemic administration of GGA (Experiment 1); assay type: in vivo, rat; settings: GGA 200 mg/kg co-administered with quercetin 4 mg/kg daily i.p., 7 days
Method: Experiment 1 was performed to evaluate the expression of HSP72 and HSC70 in RGCs after systemic administration of GGA with Western blot analysis and immunohistochemistry. For Western blotting, twelve rats were equally divided into 6 groups. Three groups of animals were given intraperitoneal injections of GGA 200 mg/kg daily and were euthanized after 1-, 3- or 7 days of administration of GGA. Three control groups were intraperitoneally administered 1) saline-vehicle daily for 7 days; 2) GGA with 4 mg/kg of quercetin (Sigma, St. Louis, Mo.) daily for 7 days; and 3) untreated animals. Enriched RGC fraction was harvested from 2 retinas of each group and used for Western blot analysis. The same experiment for isolation of RGCs and Western blotting was repeated with the other 2 retinas-from each group.
A solution of 80 mg/mL GGA was prepared in saline (Balanced salt solution; Alcon Laboratories, Inc., Fort Worth, Tex.) and emulsified for one hour in an ultrasonic generator (Branson Ultrasonic Corp., Danbury, Conn.) immediately before administration. Intraperitoneal injections of GGA were given at a dose of 200 mg/kg. Saline-vehicle was prepared and administered in the same fashion in vehicle-treated control groups.
A previously described method was modified to partially purify RGCs from other retinal cells in rat retinas.38 Briefly, two dissected rat retinas from each subgroup were washed in 2.5 ml of calcium- and magnesium-free phosphate buffered saline (PBS) at pH 7.4, and incubated in 1.25 ml of PBS containing 0.5 mg/ml trypsin and 0.01% deoxyribonuclease for 15 minutes at 37° C. This was followed by washing the retinas twice in 2.5 ml of minimal essential medium (MEM) containing 10% (vol/vol) fetal bovine serum. The retinas were subsequently washed in 2.5 ml of MEM twice and dissociated in 3 ml of MEM. The cell suspension was then mixed with 1.5 ml of 30% metrizamide (ICN Biomedicals, Inc., Aurora, Ohio) in MEM to a final concentration of 10 metrizamide. This mixture was then overlaid with 5% metrizamide in MEM, and the gradient was centrifuged at 4500 rpm (HB-4; Sorvall Instruments, Newtown, Conn.) for 25 minutes at 4° C. The cells in the 5% to 10% interface were collected. and washed in 25 ml of cold MEM. The washed cells were pelleted by centrifugation at 250×g for 10 minutes (Juan 3000C centrifuge, Winchester, Va.). The cells were then resuspended in 400 μl of MEM buffer, and the protein concentration in the cell suspension was measured with a bicinchoninic acid (BCA) protein assay kit (Pierce, Rockford, Ill.).
Western blot analysis was performed according to the procedure described by Towbin et al.39 Aliquots of 20 μg of protein from enriched RGCs were separated on a 12% SDS-polyacrylamide minigel (Bio-Rad, Hercules, Calif.) and transferred to the membrane (Immunobilon-P; Millipore Corporation, Bedford, Mass.). The membrane was blocked by incubation in 0.1% Tween-20 in 100 mM Tris-buffered saline containing 10% nonfat dried milk for 1 hour. The membranes were incubated with mouse monoclonal antibody against HSP72 (1:1000; StressGen Biotechnologies Corp., Victoria, British Columbia, Canada) or with rat monoclonal antibody against HSC70 (1:1000; StressGen) overnight and then biotinylated rabbit anti-mouse secondary antibody (1:500; Amersham Pharmacia Biotech, Inc., Piscataway, N.J.) or biotinylated goat anti-rat secondary antibody (1:500; Amersham Pharmacia) for 1 hour. This was followed by incubation with streptavidin-conjugated horseradish peroxidase (1:2000; Amersham Pharmacia) for 40 minutes. The immunoreactive bands were detected by chemiluminescence with an enhanced chemiluminescence Western blot reagent (Amersham Pharmacia).

[2] = system: TUNEL positive cells in the RGCL; test: TUNEL analysis of RGCL after 1 week of IOP elevation (Experiment 3); assay type: in vivo, rat; settings: elevated IOP retinas, 1 week; quercetin = co-administered with GGA
Method: Experiment 3 was performed to investigate the inhibition of apoptosis with GGA administration after 1 week of IOP elevation (n=56).
Rats were anesthetized with intramuscular injections of 0.8 ml/kg of the anesthetic cocktail described above. […] At the end of the procedure, Tobrex ophthalmic ointment (tobramycin 0.3%; Alcon, Fort Worth, Tex.) was applied topically. Five days after intracameral injection of India ink, a dark band at the limbus was noted due to the aggregation of carbon particles in the trabecular meshwork.38 After anesthesia, approximately 200 laser burns were delivered ab externo to the pigmented trabecular band at laser settings of 200 μm diameter, 200 mW power and 0.2 seconds duration. Three weeks after the first laser treatment, another trabecular laser photocoagulation was performed without further injection of ink.
Four-μm thick paraffin embedded sections along the vertical meridian of the optic nerve head were collected and a minimum of 6 retinal sections (8 μm apart) per eyeball was used for counting the number of TUNEL positive cells in the RGCL. Only full length and undamaged retinal sections without oblique orientation were used. The procedures described in the ApopTag Peroxidase In Situ Apoptosis Detection Kit (Intergen Co., Purchase, N.Y.) were followed and diaminobenzidine (Sigma, St. Louis, Mo.) was used as a color substrate. Counting was performed by two masked investigators with light microscopy, and averaged.

HSP72 [3] = test: Quantitative immunohistochemical analysis of HSP72 in the RGCL after 1 week of IOP elevation (Experiment 3); assay type: in vivo, rat; settings: quercetin = co-administered with GGA
Method: TdT-mediated biotin-dUTP nick end labeling (TUNEL) and immunohistochemical analysis for HSP72 and HSC70 were performed.
Animals were deeply anesthetized with intramuscular injections of 0.8 ml/kg of a cocktail of 5 ml ketamine (100 mg/ml), 2.5 ml xylazine (20 mg/ml), 1.0 ml acepromazine (10 mg/ml), and 1.5 ml normal saline. Then they were transcardially perfused with 4% paraformaldehyde in 0.1 M phosphate buffer. The enucleated eyeballs were immersed in fixative for 1 hour, bisected and post-fixed overnight. The eyes were embedded in paraffin and sectioned at a four-μm thickness along the vertical meridian through the optic nerve head. After deparaffinization and hydration, a species-specific Vectastain ABC kit (Vector Laboratories, Inc., Burlingame, Calif.) was chosen to match the species of primary antibody and the manufacturer's procedures were followed. The tissue sections were incubated with blocking serum solution in PBS for 1 hour. This was followed by incubation with primary antibody at 4° C overnight. The antibodies were mouse monoclonal antibody against HSP72 (1:500; StressGen Biotechnologies Corp., Victoria, British Columbia, Canada), goat polyclonal antibody against HSP72 (1:1000; Santa Cruz Biotechnology, Inc., Santa Cruz, Calif.) or rat monoclonal antibody against HSC70 (1:200; StressGen). Antigen-antibody complexes were detected by an avidin-biotin-peroxidase technique (Vectastain ABC Kit; Vector Laboratories). Diaminobenzidine (DAB) was used to produce a brown color in the target tissue and the slides were permanently mounted. As a negative control, alternate retinal section was incubated with blocking solution by replacing the primary antibody or with anti-rabbit secondary antibody by replacing the original secondary antibody.
Immunohistochemical staining was analyzed quantitatively with a computer-assisted image processing unit (Image-Pro Plus software, Media Cybernetics, Silver Spring, Md.) and the “count-measure” function. Images of immuno-stained sections were captured with a digital camera (Cool snap, RS Photometric, Tucson, Ariz.) attached to the microscope (Axio plan, Carl Zeiss, Oberkochen, Germany) at 630× magnification under oil immersion. The system was calibrated according to the supplier's manual before the analysis. For each digital image, all individual cells in the RGCL were marked by a masked examiner and the optical density of each cell was measured. The relative intensities of cells in the RGCL were measured and averaged (±SEM) to yield a single value representing one retina.

[4] = system: retinal ganglion cells (RGCs); test: Density of DTMR-labeled RGCs in rat glaucoma model (Experiment 2); assay type: in vivo; settings: retinas with IOP elevation, 5 weeks; quercetin = co-administered with GGA
Method: GGA was then given twice a week at the same dose until euthanasia. Sustained elevation of intraocular pressure (IOP) was maintained by performing trabecular laser photocoagulation three weeks after the first photocoagulation. […] IOP and body weight were measured once a week. […] Rats were anesthetized with intramuscular injections of 0.8 ml/kg of the anesthetic cocktail described above. A previously published procedure was modified to produce chronic moderately elevated IOP unilaterally, while the untreated contralateral eye served as the comparative control.40 Animals were injected intracamerally with 10 μl of 35% India ink (Becton Dickinson, Cockeysville, Md.) in 0.01 M PBS after removing a similar volume of aqueous. At the end of the procedure, Tobrex ophthalmic ointment (tobramycin 0.3%; Alcon, Fort Worth, Tex.) was applied topically. Five days after intracameral injection of India ink, a dark band at the limbus was noted due to the aggregation of carbon particles in the trabecular meshwork.38 After anesthesia, approximately 200 laser burns were delivered ab externo to the pigmented trabecular band at laser settings of 200 μm diameter, 200 mW power and 0.2 seconds duration. Three weeks after the first laser treatment, another trabecular laser photocoagulation was performed without further injection of ink. […] A cross section of the optic nerve was made with the needle knife through the opening of the optic nerve sheath, with care not to damage the adjacent blood supply. DTMR crystals were applied to the proximal cut surface of the optic nerve to label RGCs by fast retrograde axonal transport. After euthanasia and enucleation, the retinas were dissected and flattened with four radial cuts (superotemporal, inferotemporal, superonasal, and inferonasal). They were placed with vitreal side up on glass slides, dried in the dark at room temperature overnight and mounted. The retinas were examined with a fluorescence microscope (Axioplan; Carl Zeiss, Oberkochen, Germany) equipped with a filter that permits visualization of rhodamine fluorescence (excitation filter BP 546, barrier filter LP590; Carl Zeiss). The counting of RGCs was conducted by 2 examiners in a masked fashion. […] Each rectangular area measured 0.475 mm×0.362 mm and the total counted area corresponded to approximately 3.1% of each total retinal area. Data are expressed as number of RGCs per mm2.

Compound	protection of retinal ganglion cells (retinal ganglion cells)	expression of HSP72 in RGCs (immunoblot) (HSP72 [1])	effect on number of TUNEL positive cells (in words) [2]	HSP72 expression (immunoreactive intensity) in the RGCL (HSP72 [3]; control (normal IOP) retinas vs vehicle-alone controls)	HSP72 expression (immunoreactive intensity) in the RGCL (HSP72 [3]; retinas with IOP elevation, 1 week)	effect on density of DTMR-labeled RGCs (in words) [4]
OCC1OC(O)CC(O)C1O [2DG, 2-deoxy-D-gluycose]	ineffective	–	–	–	–	–
O=c1c(O)c(-c2ccc(O)c(O)c2)oc2cc(O)cc(O)c12 [quercetin]	–	inhibited	reversed	abolished; also recorded: diminished	significantly reduced; also recorded: abolished	abolished the protective effect
